Tests used:
[1] = molecular target: T1, human recombinant histamine H1 receptor (Homo sapiens, UniProt P35367); assay: Histamine H1 radioligand binding ([3H]Pyrilamine); details: 0.1 μM compound; for inhibition at 0.1 µM: read-out: Binding data (Percentage inhibition) Histamine H1 (0.1 μM)
T1 construct: expressed in transfected cells; host or cells: CHO-K1
Protocol: To evaluate in radioligand binding assays the activity of compounds of the invention, human recombinant histamine H1 receptor expressed in Chinese hamster ovary (CHO) K1 cells (De Backer, M. et al, Biochem. Biophys. Res. Comm. 197(3):1601, 1993) in a modified Tris-HCl buffer (50 mM Tris-HCl, pH 7.4, 2 mM MgCl2, 100 mM NaCl, 250 mM Sucrose) was used. Compounds of the invention were incubated with 1.2 nM [^3H]Pyrilamine for 180 min at 25° C. Non-specific binding was estimated in the presence of 1 μM Pyrilamine. Receptor proteins were filtered and washed, the filters were then counted to determine [^3H]Pyrilamine specifically bound. Compounds were screened at 1 μM or lower, using 1% DMSO as vehicle. Biochemical assay results are presented as the percent inhibition of specific binding in Table 3.

[2] = molecular target: T2, human recombinant serotonin (5-Hydroxytryptamine) 5-HT2C receptor (Homo sapiens, UniProt P28335); assay: Serotonin 5-HT2C radioligand binding ([3H]Mesulergine); details: 0.1 μM compound; for Percentage inhibition of ligand binding, Serotonin 5-HT2C: 0.1 µM; for inhibition at 0.1 µM: read-out: Percentage inhibition of ligand binding, Serotonin 5-HT2C
T2 construct: expressed in transfected cells; host or cells: CHO-K1
T2 sequence (P28335 33-458): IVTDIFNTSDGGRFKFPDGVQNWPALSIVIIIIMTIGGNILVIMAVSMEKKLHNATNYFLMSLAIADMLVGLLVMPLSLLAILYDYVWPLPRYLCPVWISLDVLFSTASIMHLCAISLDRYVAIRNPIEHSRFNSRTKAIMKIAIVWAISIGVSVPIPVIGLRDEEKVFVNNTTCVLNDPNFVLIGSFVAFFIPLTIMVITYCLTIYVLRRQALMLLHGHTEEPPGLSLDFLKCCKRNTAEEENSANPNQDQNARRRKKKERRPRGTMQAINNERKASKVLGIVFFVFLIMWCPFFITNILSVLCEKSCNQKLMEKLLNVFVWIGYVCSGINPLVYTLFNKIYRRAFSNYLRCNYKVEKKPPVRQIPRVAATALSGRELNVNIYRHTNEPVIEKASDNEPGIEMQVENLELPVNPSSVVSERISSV
Protocol: To evaluate in radioligand binding assays the activity of compounds of the invention, human recombinant serotonin (5-Hydroxytryptamine) 5-HT2C receptor expressed in Chinese hamster ovary (CHO) K1 cells (Wolf, W. et al, J. Neurochem. 69:1449, 1997) in a modified Tris-HCl buffer (50 mM Tris-HCl, pH 7.4, 0.1% Ascorbic Acid, 10 μM Pargyline) was used. Compounds of the invention were incubated with 1 nM [^3H]Mesulergine for 60 min at 25° C. Non-specific binding was estimated in the presence of 1 μM Mianserin. Receptor proteins were filtered and washed, the filters were then counted to determine [^3H]Mesulergine specifically bound. Compounds were screened at 1 μM or lower, using 1% DMSO as vehicle. Biochemical assay results are presented as the percent inhibition of specific binding in Table 5.

[3] = molecular target: T3, rat adrenergic α1B receptor (Rattus norvegicus, UniProt P15823); assay: Adrenergic α1B radioligand binding ([3H]Prazosin); details: 0.1 μM compound; for Percentage inhibition of ligand binding, Adrenergic α1B: 0.1 µM; for inhibition at 0.1 µM: read-out: Percentage inhibition of ligand binding, Adrenergic α1B
T3 construct: rat adrenergic α1B receptor obtained from Wistar Rat liver; from tissue; host or cells: Wistar rat liver
T3 sequence (P15823 1-515): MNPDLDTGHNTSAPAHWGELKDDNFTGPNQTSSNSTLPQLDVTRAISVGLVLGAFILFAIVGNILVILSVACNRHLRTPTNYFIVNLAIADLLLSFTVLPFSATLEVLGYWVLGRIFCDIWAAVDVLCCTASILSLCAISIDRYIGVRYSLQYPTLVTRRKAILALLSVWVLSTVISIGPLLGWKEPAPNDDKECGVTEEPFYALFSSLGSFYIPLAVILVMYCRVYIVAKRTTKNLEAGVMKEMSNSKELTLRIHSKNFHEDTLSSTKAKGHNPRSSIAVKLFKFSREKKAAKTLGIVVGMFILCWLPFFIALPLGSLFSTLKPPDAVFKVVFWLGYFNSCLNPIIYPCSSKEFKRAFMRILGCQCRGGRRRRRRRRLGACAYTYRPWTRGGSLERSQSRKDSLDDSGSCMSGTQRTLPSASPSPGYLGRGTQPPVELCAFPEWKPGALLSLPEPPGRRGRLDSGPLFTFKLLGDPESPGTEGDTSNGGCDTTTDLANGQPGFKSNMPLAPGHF
Protocol: To evaluate in radioligand binding assays the activity of compounds of the invention, rat adrenergic α1B receptor obtained from Wistar Rat liver (Garcia-S'ainz, J. et al, Biochem. Biophys. Res. Commun. 186:760, 1992; Michel, A. et al, Br. J. Pharmacol. 98:883, 1989) in a modified Tris-HCl buffer (50 mM Tris-HCl buffer, pH 7.4, 0.5 mM EDTA) was used. Compounds of the invention were incubated with 0.25 nM [^3H]Prazosin for 60 min at 25° C. Non-specific binding was estimated in the presence of 10 μM phentolamine. Receptor proteins were filtered and washed, the filters were then counted to determine [^3H]Prazosin specifically bound. Compounds were screened at 1 μM or lower, using 1% DMSO as vehicle. Biochemical assay results are presented as the percent inhibition of specific binding in Table 3.

T1 sequence (P35367 whole entry): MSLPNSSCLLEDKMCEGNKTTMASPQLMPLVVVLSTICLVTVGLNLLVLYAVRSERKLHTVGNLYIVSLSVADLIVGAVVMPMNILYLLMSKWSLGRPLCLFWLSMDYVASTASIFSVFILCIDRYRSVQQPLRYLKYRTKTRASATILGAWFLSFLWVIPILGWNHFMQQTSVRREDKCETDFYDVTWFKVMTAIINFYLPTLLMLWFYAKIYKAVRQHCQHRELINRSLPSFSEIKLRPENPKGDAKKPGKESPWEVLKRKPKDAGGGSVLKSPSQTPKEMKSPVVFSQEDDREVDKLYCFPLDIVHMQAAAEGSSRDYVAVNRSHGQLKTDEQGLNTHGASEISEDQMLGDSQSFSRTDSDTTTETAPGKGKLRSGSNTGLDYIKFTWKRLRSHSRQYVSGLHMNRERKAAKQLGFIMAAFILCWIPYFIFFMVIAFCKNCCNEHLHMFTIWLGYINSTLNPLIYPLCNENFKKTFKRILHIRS

Compound	Binding data (Percentage inhibition) Histamine H1 (0.1 μM) [1] [%]	Percentage inhibition of ligand binding, Serotonin 5-HT2C [2] [%]	Percentage inhibition of ligand binding, Adrenergic α1B [3] [%]	inhibition at 0.1 µM [2] [%]	inhibition at 0.1 µM [1] [%]	inhibition at 0.1 µM [3] [%]
Cc1ccc2c(c1)c1c(n2CC2(O)CCCc3cnccc32)CCN(C)C1 (single isomer, unassigned) [ii-74a]	1	28	12			
Cc1ccc2c(c1)c1c(n2/C=C2/CCCc3ccccc32)CCN(C)C1 [i-2]				100	28	85
Cc1ccc2c(c1)c1c(n2/C=C2\CCCc3ccccc32)CCN(C)C1 [i-3]				100	32	66

Now from value to compound, other results behind:

Binding data (Percentage inhibition) Histamine H1 (0.1 μM) [1] [%]	Percentage inhibition of ligand binding, Serotonin 5-HT2C [2] [%]	Percentage inhibition of ligand binding, Adrenergic α1B [3] [%]	Compound	inhibition at 0.1 µM [2] [%]	inhibition at 0.1 µM [1] [%]	inhibition at 0.1 µM [3] [%]
11	53	83	Cc1ccc2c(c1)c1c(n2CC2(O)CCCc3cnccc32)CCN(C)C1 (single isomer, unassigned) [ii-74b]			
4		79	Cc1ccc2c(c1)c1c(n2CC2(O)CCCc3ncccc32)CCN(C)C1 (single isomer, unassigned) [ii-112a]	42		
13	37	14	Cc1ccc2c(c1)c1c(n2CC2(O)CCCc3ncccc32)CCN(C)C1 (single isomer, unassigned) [ii-112b]			
13		5	Cc1ccc2c(c1)c1c(n2CC2(O)CCCc3ccncc32)CCN(C)C1 (single isomer, unassigned) [ii-113a]	37		
